Assay results taken from PubChem BioAssay (NCI).
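Grown in 96-well plates, cells were treated for 48 hours with each compound at five concentrations. Insufficient inhibition: endpoint recorded as highest concentration tested. TGI denotes the concentration required for complete inhibition of growth.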 Where a SMILES comes first, the peptide text is derived from it. [ ]: non-standard residue; d: D form. ΔPro = O=C(O)[CH]1C=CCN1

Assays:
Assay in all cases: inhibition of tumour cell growth, NCI panel, 48 h
ACHN renal = tested on: ACHN renal
HCC-2998 colon = tested on: HCC-2998 colon
HCT-15 colon = tested on: HCT-15 colon
MDA-MB-231 breast = tested on: MDA-MB-231 breast
MDA-N = tested on: MDA-N
MOLT-4 leukemia = tested on: MOLT-4 leukemia
NCI-H226 lung = tested on: NCI-H226 lung
NCI-H23 lung = tested on: NCI-H23 lung
NCI-H522 lung = tested on: NCI-H522 lung
SF-268 CNS = tested on: SF-268 CNS
SK-MEL-28 melanoma = tested on: SK-MEL-28 melanoma

Compound | TGI (ACHN renal) [µM] | TGI (HCC-2998 colon) [µM] | TGI (HCT-15 colon) [µM] | TGI (MDA-MB-231 breast) [µM] | TGI (MDA-N) [µM] | TGI (MOLT-4 leukemia) [µM] | TGI (NCI-H226 lung) [µM] | TGI (NCI-H23 lung) [µM] | TGI (NCI-H522 lung) [µM] | TGI (SF-268 CNS) [µM] | TGI (SK-MEL-28 melanoma) [µM]
CCCCCCCCOC(=O)C12Oc3ccc(-c4ccc5c(c4O)C(O)=C4C(=O)CC(C)C(O)C4(C(=O)OCCCCCCCC)O5)c(O)c3C(O)=C1C(=O)CC(C)C2O (stereo unspecified) | 25.5 | > 100 | > 100 | 59.7 | > 100 | 60.6 | > 100 | 31.5 | 48.2 | > 100 | > 100
CCc1n[nH]c(=O)n1CC | > 100 | > 100 | > 100 | > 100 | > 100 | > 100 | > 100 | > 100 | > 100 | > 100 | > 100
CC(=O)Nc1cc(Cl)cc(Cl)c1O | > 100 | > 100 | > 100 | > 100 | > 100 | > 100 | > 100 | > 100 | > 100 | > 100 | > 100
CC(=O)NS(=O)(=O)c1ccc(NCc2cccc3c(=O)c4ccc(Cl)cc4oc23)cc1 | > 100 | > 100 | > 55.4 | > 100 | > 100 | > 100 | > 100 | > 71.6 | > 83.8 | > 100 | > 100
c1ccc(C2=NN2c2ccccc2)cc1 | > 100 | > 100 | > 100 | > 100 | > 100 | > 100 | > 100 | > 100 | > 100 | > 100 | > 100
CCOC(=O)c1ncn(CCc2ccc(Cl)cc2)c1C | > 100 | > 100 | > 100 | > 100 | > 100 | > 100 | > 100 | > 100 | > 100 | > 100 | > 100
O[C@@]1(C#Cc2ccc3c(c2)OCO3)CCC[C@H]1NCc1ccccc1 | > 100 | 32.2 | 47.3 | > 100 | 32.5 | 45.1 | 51.2 | > 100 | 29.8 | > 100 | 38.1
CSC1=NN(C(C)=O)C(C(OC(C)=O)C(OC(C)=O)C(OC(C)=O)C(COC(C)=O)OC(C)=O)S1 (stereo unspecified) | > 100 | > 100 | > 100 | > 100 | > 100 | > 100 | > 100 | > 100 | > 100 | > 100 | > 100
Cn1nnc2c(C(N)=S)ncn2c1=O | > 100 | > 100 | > 100 | > 100 | > 100 | > 100 | > 100 | > 100 | > 100 | > 100 | > 100
O=C(O)C1C=CCN1C(=O)C1C=CCN1C(=O)C1C=CCN1 (stereo unspecified) (H-[ΔPro]-[ΔPro]-[ΔPro]-OH; configuration not given here) | > 100 | > 100 | > 100 | > 100 | > 100 | > 100 | > 100 | > 100 | > 100 | > 100 | > 100
C=C(C)C1CC[C@@](C)(O)[C@H](C#N)C1 (stereo partly specified) | > 100 | > 100 | > 100 | > 100 | > 100 | > 100 | > 100 | > 100 | > 100 | > 100 | > 100
O=C(OCc1ccccc1)C(Cc1ccc(OCc2ccccc2)cn1)NC(=O)C(F)(F)F (stereo unspecified) | > 100 | > 100 | > 100 | > 100 | > 100 | > 100 | > 100 | > 100 | > 100 | > 100 | > 100
COC(=O)/C=C/CCC#Cc1ccccc1C#CCC/C=C/C(=O)OC | > 100 | > 100 | > 100 | > 100 | > 100 | 10.5 | > 100 | 42.9 | 18.6 | > 100 | > 100
CC1(C)OCC(CO)(CO)CO1 | > 100 | > 100 | > 100 | > 100 | > 100 | > 100 | > 100 | > 100 | > 100 | > 100 | > 100
O=C(c1cscc1CCc1ccccc1)c1cscc1CCc1ccccc1 | > 100 | > 100 | > 100 | > 100 | > 100 | > 100 | > 100 | > 100 | > 100 | > 100 | > 100
O=C1Nc2ccc(Br)cc2/C1=N/S(=O)(=O)O | > 100 | > 100 | > 100 | 36 | 26.6 | 63.4 | > 100 | > 100 | > 100 | > 100 | > 100
O=Cc1cn(CCCCCCCCn2cc(C=O)c3ccccc32)c2ccccc12 | > 10 | > 10 | > 10 | > 10 | > 10 | > 10 | > 10 | > 10 | > 10 | > 10 | > 10
COC(=O)[C@@H]1C[C@@H](O)CN1C(=O)c1ccc([N+](=O)[O-])cc1[N+](=O)[O-] | > 100 | > 100 | > 100 | > 100 | > 100 | > 100 | > 100 | > 100 | > 100 | > 100 | > 100
c1ccc2sc(SSSc3nc4ccccc4s3)nc2c1 | > 100 | > 100 | > 100 | > 100 | > 100 | > 100 | > 100 | > 100 | > 100 | > 100 | > 100
O=c1[nH]c2c(c(=O)[nH]1)SC(c1ccccc1)C2 (stereo unspecified) | > 100 | > 100 | > 100 | > 100 | > 100 | > 100 | > 100 | > 100 | > 100 | > 100 | > 100
COC(=O)[C@@H]1CN(C(=O)CCc2ccccc2)C(=O)N1 | > 100 | > 100 | > 100 | > 100 | > 100 | > 100 | > 100 | > 100 | > 100 | > 100 | > 100
CC(C)(C)OC(=O)N(O)[C@@H]1CC[C@H](n2cnc3c(N)ncnc32)C1 | > 100 | > 100 | > 100 | > 100 | > 100 | > 100 | > 100 | > 100 | > 100 | > 100 | > 100
C=C(COCO)C(C)=O | 29.2 | > 58.4 | 39.6 | 33.6 | 33.5 | 6.08 | > 100 | 35.4 | 3.75 | 38 | 32
Clc1sc(Cl)c2c1[C@H](Cl)C[C@@H]2Cl | 95 | 33.4 | 41.3 | 90.5 | 64.5 | > 100 | 39.8 | 50 | 3.31 | 44.3 | 38.1
CC(=O)OCC1OC(n2c(C)c(C(C)=O)c(-c3ccco3)c(C#N)c2=S)C(OC(C)=O)C(OC(C)=O)C1OC(C)=O (stereo unspecified) | > 100 | > 100 | > 100 | > 100 | > 100 | > 100 | > 100 | > 100 | > 100 | > 100 | > 100
CCO/C(O)=C(/C(=N)N1CCOCC1)C(=O)NC(C)C | > 100 | > 100 | > 100 | > 100 | > 100 | > 100 | > 100 | > 100 | > 100 | > 100 | > 100
